The source of these data is patent US10947222B2, “Indole derivatives useful as inhibitors of diacylglyceride O-acyltransferase 2” (Merck Sharp & Dohme Corp., priority 2016, dated 2021).

Each structure is given as a SMILES string.

Sequence of human DGAT2 (hDGAT2) (Q96PD7 whole entry): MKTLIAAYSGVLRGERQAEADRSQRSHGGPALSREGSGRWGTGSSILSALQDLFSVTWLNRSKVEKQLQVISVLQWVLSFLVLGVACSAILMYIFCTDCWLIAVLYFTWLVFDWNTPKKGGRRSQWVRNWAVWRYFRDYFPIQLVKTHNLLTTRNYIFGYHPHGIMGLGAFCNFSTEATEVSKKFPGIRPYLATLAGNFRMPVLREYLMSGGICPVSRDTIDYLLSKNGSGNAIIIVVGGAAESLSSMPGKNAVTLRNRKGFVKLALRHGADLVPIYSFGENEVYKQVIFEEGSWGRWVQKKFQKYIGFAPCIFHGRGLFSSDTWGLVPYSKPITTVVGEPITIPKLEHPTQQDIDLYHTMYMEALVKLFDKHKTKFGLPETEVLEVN

The target in this assay is human DGAT2 (hDGAT2) (Homo sapiens (Human), UniProt Q96PD7). The experiment in a line: DGAT2 enzymatic activity assay (triolein formation, LC/MS/MS). In kind it is biochemical. As to conditions: Sf-9 membrane prep expressing hDGAT2; 25 μM diolein, 10 μM oleoyl-CoA; triolein by LC/MS/MS. On the procedure:
Sf-9 insect cells were maintained in Grace's insect cell culture medium with 10% heated-inactivated fetal bovine serum, 1% Pluronic F-68 and 0.14 μg/ml Kanamycine sulfate in Erlenmeyer flasks at 28° C. in a shaker incubator. After infection with untagged baculovirus expressing human DGAT2 (hDGAT2) at multiplicity of infection (MOI) 0.1 for 48 hours, cells were harvested. Cell pellets were suspended in buffer containing 10 mM Tris-HCl (pH 7.5), 1 mM EDTA (pH 8.0), 250 mM sucrose and Complete Protease Inhibitor Cocktail (Roche Diagnostics Corp., Indianapolis, Ill.), and sonicated on ice. Membrane fractions were isolated by ultracentrifugation (100,000×g pellet), resuspended in the same buffer, and frozen (−80° C.) for later use. The protein concentration was determined with the BCA Protein Assay kit (Pierce Biotechnology Inc., Rockford, Ill.). Expression of protein levels was analyzed by immunoblotting with goat polyclonal DGAT2 antibody C-15 and donkey anti-goat IgG HRP (Santa Cruz Biotechnology, Inc., Santa Cruz, Calif.) followed by detection with ECL reagent (GE Healthcare, Piscataway, N.J.).
LC/MS/MS analyses were performed using Thermal Fisher's LX4-TSQ Vantage system. This system consists of an Agilent binary high-performance liquid chromatography (HPLC) pumps and a TSQ Vantage triple quadrupole MS/MS instrument. For each sample, 2 μL samples from the top organic layer of in-plate liquid-liquid extraction were injected onto a Thermo Betabasic C4 column (2.1 mm×20 mm, 5 μm particle size). The samples were then eluted using the following conditions; mobile phase: methanol/water with 0.1% ammonium format=92/8 (v/v), flow rate: 1 mL/min, temperature: 25 C. Data was acquired in positive mode using a heated electrospray ionization (HESI) interface. The operational parameters for the TSQ Vantage MS/MS instrument were a spray voltage of 3000 V, capillary temperature of 280° C., vaporizer temperature 400° C., shealth gas 60 arbitrary unit, Aux gas 40 arbitrary units, S-lens 113 and collision gas 0.16 Pascals. […] (SRM) chromatograms of triolein (Q1:902.9>Q3:602.3) and internal standard (Q1:902.9>Q3:602.3) were collected for 40 sec. The peak area was integrated by Xcalibur Quan software. The ratio between the triolein generated in the reaction and spiked in internal standard was used to generate percentage inhibition and IC50 values. Compound percentage inhibition was calculated by the following formula: Inhibition %/=1−[(compound response−low control)/(high control−low control)]×100%. Potent compounds were titrated and IC50 were calculated by 4 parameter sigmoidal curve fitting formula.
DGAT2 activity was determined by measuring the amount of enzymatic product triolein (1,2,3-Tri(cis-9-octadecenoyl)glycerol) using the membrane prep mentioned above. The assay was carried out in deep well 384 plates in a final volume of 40 μL at rt. The assay mixture contained the following: assay buffer (100 mM Tris.Cl, pH 7.0, 20 mM MgCl2, 5% ethanol), 25 μM of diolein, 10 μM of oleoyl-CoA and 10 ng/μL of DGAT2 membrane.
On to `O=C(NC1CCS(=O)(=O)C1)c1ccc2c(-c3ccccc3Cl)cn(-c3ccc(F)cc3)c2c1` (single isomer, unassigned) [Example 2-A, 3-(2-chlorophenyl)-N-(1,1-dioxidotetrahydrothiophen-3-yl)-1-(4-fluorophenyl)-1H-indole-6-carboxamide], for which it took 171 nM to reach half-maximal inhibition (IC50).

Turning to `O=C(NC1CCS(=O)(=O)C1)c1ccc2c(-c3cncnc3)cn(-c3ccc(F)cc3)c2c1` (racemic) [Example 50, N-(1,1-dioxidotetrahydrothiophen-3-yl)-1-(4-fluorophenyl)-3-pyrimidin-5-yl-1H-indole-6-carboxamide (racemic)], the IC50 worked out at 321 nM. In the case of `O=C(NC1CCS(=O)(=O)C1)c1ccc2c(-c3c(Cl)cccc3Cl)cn(-c3ccc(F)cc3)c2c1` (racemic) [Example 47, 3-(2,6-dichlorophenyl)-N-(1,1-dioxidotetrahydrothiophen-3-yl)-1-(4-fluorophenyl)-1H-indole-6-carboxamide (racemic)], it took 942 nM to reach half-maximal inhibition (IC50).

For the compound `CC1(NC(=O)c2ccc3c(-c4cccc(C5CC5)c4)cn(-c4ccc(F)cn4)c3c2)CCS(=O)(=O)C1` (single isomer, unassigned; enantiomer b) [Example 12-B, 3-(3-cyclopropylphenyl)-1-(5-fluoropyridin-2-yl)-N-(3-methyl-1,1-dioxidotetrahydrothiophen-3-yl)-1H-indole-6-carboxamide (enantiomer B)], 0.73 nM corresponded to half-maximal inhibition (IC50).

The compound `CC1(NC(=O)c2ccc3c(-c4ccccc4Cl)cn(-c4ccc(F)cn4)c3c2)CCS(=O)(=O)C1` (single isomer, unassigned; enantiomer a) [Example 14-A, 3-(2-chlorophenyl)-1-(5-fluoropyridin-2-yl)-N-(3-methyl-1,1-dioxidotetrahydrothiophen-3-yl)-1H-indole-6-carboxamide (Enantiomer A, Fast)] came in with an IC50 of 16 nM. The value for `C[C@H](NC(=O)c1ccc2c(-c3ccccc3Cl)cn(-c3ccc(F)cc3)c2c1)c1ccc(C(F)(F)F)nc1` [Example 6, (S)-3-(2-chlorophenyl)-1-(4-fluorophenyl)-N-(1-(6-(trifluoromethyl)pyridin-3-yl)ethyl)-1H-indole-6-carboxamide] was 476 nM; that for `O=C(NC1CCS(=O)(=O)C1)c1ccc2c(-c3cccc(-n4cccn4)c3)cn(-c3ccc(F)cc3)c2c1` (racemic) [Example 38, N-(1,1-dioxidotetrahydrothiophen-3-yl)-1-(4-fluorophenyl)-3-[3-(1H-pyrazol-1-yl)phenyl]-1H-indole-6-carboxamide (racemic)] was 15 nM. `O=C(NC1CCS(=O)(=O)C1)c1ccc2c(-c3ccccc3Cl)cn(-c3ccc(F)cc3)c2c1` (single isomer, unassigned) [Example 2-B, 3-(2-chlorophenyl)-N-(1,1-dioxidotetrahydrothiophen-3-yl)-1-(4-fluorophenyl)-1H-indole-6-carboxamide] returned an IC50 of 30 nM. For the compound `O=C(NC1CCS(=O)(=O)C1)c1ccc2c(-c3cccc(OC(F)F)c3)cn(-c3ncc(F)cn3)c2c1` (single isomer, unassigned; enantiomer a) [Example 19-A, 3-(3-(difluoromethoxy)phenyl)-N-(1,1-dioxidotetrahydrothiophen-3-yl)-1-(5-fluoropyrimidin-2-yl)-1H-indole-6-carboxamide (enantiomer A)], the IC50 came to 1.6 nM. With `CC1(NC(=O)c2ccc3c(-c4cccc(OC(F)F)c4)cn(-c4ncc(F)cn4)c3c2)CCS(=O)(=O)C1` (single isomer, unassigned; enantiomer a) [Example 18-A, 3-(3-(difluoromethoxy)phenyl)-1-(5-fluoropyrimidin-2-yl)-N-(3-methyl-1,1-dioxidotetrahydrothiophen-3-yl)-1H-indole-6-carboxamide (enantiomer A)] the figure was 1.7 nM; with `CC1(NC(=O)c2ccc3c(-c4cccc(OC(F)F)c4)cn(-c4ncc(F)cn4)c3c2)CCS(=O)(=O)C1` (single isomer, unassigned; enantiomer b) [Example 18-B, 3-(3-(difluoromethoxy)phenyl)-1-(5-fluoropyrimidin-2-yl)-N-(3-methyl-1,1-dioxidotetrahydrothiophen-3-yl)-1H-indole-6-carboxamide (enantiomer B)], 0.91 nM.

For the compound `O=C(NC1CCS(=O)(=O)C1)c1ccc2c(-c3cccc(OC(F)F)c3)cn(-c3ccc(F)cn3)c2c1` (single isomer, unassigned; enantiomer a) [Example 13-A, 3-(3-(difluoromethoxy)phenyl)-N-(1,1-dioxidotetrahydrothiophen-3-yl)-1-(5-fluoropyridin-2-yl)-1H-indole-6-carboxamide (enantiomer A)], the IC50 amounted to 1.8 nM.

The compound `Cc1c(-c2ccccc2Cl)c2ccc(C(=O)NC3(C)CCS(=O)(=O)C3)cc2n1-c1ccc(F)cc1` (single isomer, unassigned; enantiomer a) [Example 8-A, 3-(2-chlorophenyl)-1-(4-fluorophenyl)-2-methyl-N-(3-methyl-1,1-dioxidotetrahydrothiophen-3-yl)-1H-indole-6-carboxamide (Enantiomer A)] registered an IC50 of 934 nM. `CC1(NC(=O)c2ccc3c(-c4cccc(OC(F)F)c4)cn(-c4ccc(F)cn4)c3c2)CCS(=O)(=O)C1` (single isomer, unassigned; enantiomer b) [Example 10-B, 3-(3-(difluoromethoxy)phenyl)-1-(5-fluoropyridin-2-yl)-N-(3-methyl-1,1-dioxidotetrahydrothiophen-3-yl)-1H-indole-6-carboxamide (enantiomer B)] registered an IC50 of 1 nM.

`O=C(NC1CCS(=O)(=O)C1)c1ccc2c(-c3ccc(-n4cccn4)cc3)cn(-c3ccc(F)cc3)c2c1` (racemic) [Example 56, N-(1,1-dioxidotetrahydrothiophen-3-yl)-1-(4-fluorophenyl)-3-[4-(1H-pyrazol-1-yl)phenyl]-1H-indole-6-carboxamide (racemic)] returned an IC50 of 117 nM. On to `Cc1ccc(-c2cn(-c3ccc(F)cc3)c3cc(C(=O)NC4CCS(=O)(=O)C4)ccc23)cc1` (racemic) [Example 55, N-(1,1-dioxidotetrahydrothiophen-3-yl)-1-(4-fluorophenyl)-3-(4-methylphenyl)-1H-indole-6-carboxamide (racemic)], for which the IC50 turned out to be 696 nM. The value for `O=C(NC1CCS(=O)(=O)C1)c1ccc2c(-c3cccnc3)cn(-c3ccc(F)cc3)c2c1` (racemic) [Example 52, N-(1,1-dioxidotetrahydrothiophen-3-yl)-1-(4-fluorophenyl)-3-pyridin-3-yl-1H-indole-6-carboxamide (racemic)] was 129 nM; that for `O=C(NC1CCS(=O)(=O)C1)c1ccc2c(-c3cccc(C4CC4)c3)cn(-c3ccc(F)cc3)c2c1` (single isomer, unassigned; enantiomer a) [Example 26-A, 3-(3-Cyclopropylphenyl)-N-(1,1-dioxidotetrahydrothiophen-3-yl)-1-(4-fluorophenyl)-1H-indole-6-carboxamide (Enantiomer A)] was 2.9 nM; that for `Cn1ccc2cc(-c3cn(-c4ccc(F)cc4)c4cc(C(=O)NC5CCS(=O)(=O)C5)ccc34)ccc21` (racemic) [Example 51, N-(1,1-dioxidotetrahydrothiophen-3-yl)-1-(4-fluorophenyl)-1′-methyl-1H,1′H-3,5′-biindole-6-carboxamide (racemic)] was 102 nM. The value for `COC(=O)c1cccc(-c2cn(-c3ccc(F)cc3)c3cc(C(=O)NC4CCS(=O)(=O)C4)ccc23)c1` (racemic) [Example 32, methyl 3-{6-[(1,1-dioxidotetrahydrothiophen-3-yl)carbamoyl]-1-(4-fluorophenyl)-1H-indol-3-yl}benzoate (racemic)] was 3.2 nM. With `Cc1c(-c2ccccc2Cl)c2ccc(C(=O)NC3(C)CCS(=O)(=O)C3)cc2n1-c1ccc(F)cc1` (single isomer, unassigned; enantiomer b) [Example 8-B, 3-(2-chlorophenyl)-1-(4-fluorophenyl)-2-methyl-N-(3-methyl-1,1-dioxidotetrahydrothiophen-3-yl)-1H-indole-6-carboxamide (Enantiomer B)] the figure was 692 nM.

Usually IC50 stands for the point on the concentration scale where inhibition reaches its midpoint.
